Measured values: patent US20230049115A1, “SYSTEM AND METHOD FOR TARGET THERMAL ANALYSIS IN COMPLEX FLUIDS” (Portland State University, priority 2021, published 2023)
Values joined by “and” are separate entries in the source; they are usually repeats but may differ in a detail not shown here. Identical values can stand only once.

Columns and labels:
[1] = DSC melting temperature of pure proteins and DNA hairpin in standard buffer (Example 2); type: physicochemical; conditions: standard buffer pH=7.4, independent of concentration
Procedure: Chemicals and reagents: Standard buffer for all experiments contained 150 mM NaCl, 10 mM potassium phosphate, 15 mM sodium citrate adjusted to pH=7.4 with hydrochloric acid. Pure Proteins: Human Serum Albumin (HSA) (≥99% pure, Lot number: SLBT8667) and lysozyme (recombinant, expressed in rice, Lot number: SLCH2681). The above proteins were prepared in standard buffer and stored at 4° C. for at least 24 hours before use. Concentrations of HSA and lysozyme were confirmed spectrophotometrically at A280.
DNA: The DNA was a 20-base pair hairpin purchased from IDT and received following a standard desalting routine. […] Lyophilized DNA was resuspended in standard buffer and stored at 4° C. DNA concentration matched the manufacturer specification as determined spectrophotometrically at A260.
DSC Measurements: DSC melting experiments were made using a CSC differential scanning microcalorimeter (now T.A. instruments, New Castle, Del.). […]
Baselines of the raw ΔCp or μcal versus temperature thermograms were determined using a four-point polynomial fit, over the temperature range of the transition, consistent with previous methods (Eskew et al., Anal Biochem 2021, 612:113843; Koslen et al., Adv in Biol Chem 2019, 9; Eskew et al., Anal Biochem 2021, 628:114293). […]

streptavidin = target: T1, streptavidin (Streptomyces avidinii, UniProt P22629); test: DSC thermogram shift on streptavidin-biotin binding, in buffer and in reconstituted E. coli lysate; conditions: for Streptavidin + Biotin Tm: 2 molar equivalents of biotin
T1 construct: purchased Alfa Aesar
T1 sequence (P22629 25-183): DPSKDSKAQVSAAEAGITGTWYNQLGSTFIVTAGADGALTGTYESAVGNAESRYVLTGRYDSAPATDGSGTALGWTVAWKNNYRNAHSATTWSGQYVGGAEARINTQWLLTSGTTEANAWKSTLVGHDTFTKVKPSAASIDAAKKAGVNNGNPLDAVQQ
Procedure: (§1) Preparation of Samples for DSC Measurements: E. coli lysate was prepared by resuspending powdered lysate in standard PBS buffer to make a 2.7 mg/mL lysate solution. The HEK923 cell lysate was the supernatant after initial centrifugation of the crude cell lysate and received in liquid form at unknown concentration. […] Streptavidin, captopril, lisinopril, and biotin were prepared in standard buffer. All samples were incubated for 24 hours at 4° C.
(§2) DSC Measurements: DSC melting experiments were made using a CSC differential scanning microcalorimeter (now T.A. instruments, New Castle, Del.). Samples were prepared by adding specific reaction components to pre-prepared media. For DSC melting experiments, the sample heating rate was approximately 1° C./min while monitoring changes in the excess heat (microwatts) of the sample versus temperature. […] Since all experiments involved investigating interactions of ligands with proteins using DSC, we were interested in testing the sensitivity or our approach to detect proteins and protein/ligand interactions in the background solution comprised of the crude cell lysate. Consequently, all DSC measurements were made on samples in the lysate media, E. coli lysate or HEK923 supernatant, where samples were prepared. Thermograms were acquired for the complex media background, several proteins, and mixtures of these proteins with ligands, i.e. drugs or other another protein.
(§3) Data Reduction and Analysis: Where the protein concentration was known, further refinement and normalization of the data provided the familiar DSC melting curve in the form of a plot of excess heat capacity, ΔCP, of the sample as a function of increasing temperature. Plots of ΔCP versus temperature are commonly termed DSC thermograms. In this case, the enthalpy of the transition can be estimated from the integrated area under the thermogram. These enthalpies can be used to gain valuable insight into protein structural stability (Eskew et al., Anal Biochem 2021, 612:113843). […] For these measurements, meaningful transition enthalpies cannot be determined.
(§4) Baselines of the raw ΔCP or μW versus temperature thermograms for E. coli were determined using a three point polynomial fit, over the temperature range of the transition, which produced a nearly straight line from 40° C. to 110° C. Baselines of the raw ΔCP or μW versus temperature thermograms for HEK293 samples were determined by connecting a straight line between data points at 40° C. and 100° C. This baseline was then subtracted from the raw curves, producing baseline corrected thermograms used for further comparisons and analysis. Between initial and final temperatures, ΔCp, for proteins is known to vary from 7-10 kcal/mol·K (Watanabe et al., Pharm Res. 2001, 18:1775-1781; Shrake et al., Vox sanguinis 1984, 47:7-18). Baseline choices served to effectively remove this difference (Eskew et al., Anal Biochem 2021, 612:113843; Lang et al., Biotechnology Progress 2015, 31:62-69). […] For all experiments thermograms of the media alone served as the background that was subtracted from thermograms of samples containing drugs and/or proteins in the same media. These difference thermograms provided enhanced visualization of sample-specific changes, corresponding predominantly to the ligand/protein interactions of concern.
Streptavidin-Biotin: Initial investigations explored streptavidin-biotin binding in reconstituted E. coli lysate. Binding behavior was examined under several conditions meant to mimic what might be encountered in an actual expression system. FIGS. 4A-4D and 5A-5D present results of this initial study. The thermogram of the E. coli lysate alone served as the background against which streptavidin-biotin binding was examined. Along with that of the media (alone) thermograms for lysate solutions containing streptavidin in different amounts, and streptavidin plus two molar equivalents of biotin in the background media solution are also shown in FIGS. 4A-4D. […]

[2] = target: T2, unpurified angiotensin converting enzyme 2 (ACE2) expressed in human embryonic kidney cells (HEK293) (Homo sapiens, UniProt Q9BYF1); type: binding
T2 construct: the expressed region for the purchased ACE2 was from Gln18-Ser740; His-tag; purchased RayBiotech Lot number: 02U2802LL; host or cells: HEK293
T2 sequence (Q9BYF1 18-740): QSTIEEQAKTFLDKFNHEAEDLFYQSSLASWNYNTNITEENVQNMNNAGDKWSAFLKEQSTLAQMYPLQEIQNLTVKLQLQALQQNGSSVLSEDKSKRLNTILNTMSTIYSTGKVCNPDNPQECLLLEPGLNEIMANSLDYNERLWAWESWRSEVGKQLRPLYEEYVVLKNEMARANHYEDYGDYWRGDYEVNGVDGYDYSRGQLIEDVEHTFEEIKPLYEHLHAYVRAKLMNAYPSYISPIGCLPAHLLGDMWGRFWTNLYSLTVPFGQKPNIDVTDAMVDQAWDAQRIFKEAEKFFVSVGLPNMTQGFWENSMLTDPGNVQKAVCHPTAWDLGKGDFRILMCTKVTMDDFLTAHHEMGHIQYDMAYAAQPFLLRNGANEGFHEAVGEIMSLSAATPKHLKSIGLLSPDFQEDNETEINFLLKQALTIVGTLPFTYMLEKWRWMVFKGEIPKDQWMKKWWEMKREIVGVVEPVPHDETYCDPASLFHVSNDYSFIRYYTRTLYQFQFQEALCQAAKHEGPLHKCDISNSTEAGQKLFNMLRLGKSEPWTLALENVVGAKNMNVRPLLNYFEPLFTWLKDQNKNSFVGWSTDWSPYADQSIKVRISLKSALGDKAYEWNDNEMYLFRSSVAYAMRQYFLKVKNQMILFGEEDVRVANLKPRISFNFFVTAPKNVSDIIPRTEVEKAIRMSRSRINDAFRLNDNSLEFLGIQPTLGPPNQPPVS

ACE2 = conditions: previous molecular docking studies; cited from earlier work
COVID-19 = conditions: cited from earlier work
[3] = DSC thermogram of the protein alone (Example 1: buffer, E. coli lysate or HEK293 supernatant background subtracted); type: physicochemical
Procedure: as §1, §2, §3, §4
The thermogram measured for the supernatant, without ACE2 present, served as the background against which comparisons were made. […] These curves have similar shapes but there is a clear difference for the thermogram of the supernatant containing ACE2. To isolate and enhance the specific contributions to the thermogram of ACE2 protein, the background thermogram for the supernatant alone was subtracted from that for ACE2 in the supernatant. […] This observation is in precise agreement with published results of DSC measurements on unmodified ACE2, that also found two peaks at precisely the same temperatures (Voronov et al., FEBS Letters 2002, 522:77-82). […]

[4] = 1 mg/mL Streptavidin (33%, Condition-II), E. coli lysate
[5] = 1 mg/mL Streptavidin (control), in buffer
[6] = 2 mg/mL Streptavidin (11%, Condition-III), E. coli lysate
[7] = 2 mg/mL Streptavidin (33%, Condition-I), E. coli lysate
[8] = Conditions-I and II, difference thermograms FIGS. 5A and 5B
[9] = unpurified ACE2 in HEK293 supernatant, background subtracted (FIG. 6B)

Compound: 5′-CGGGCGCGTTTTCGCGCCCG-3′ (DNA CGGGCGCGTTTTCGCGCCCG; DNA, backbone and methylation of C not given here; hairpin) [DNA hairpin, 20-base single strand oligomer forming an intramolecular stem-loop hairpin, DNA standard molecule]
- Tm [1]: 94.34±0.06 °C

Compound: O=C(O)CCCC[C@@H]1SC[C@@H]2NC(=O)N[C@@H]21 [Biotin, biotin]
- Streptavidin + Biotin Tm (streptavidin; [4]): 79.96 ± 0.36 °C
- Streptavidin + Biotin Tm (streptavidin; [5]): 79.17 ± 0.06 °C
- Streptavidin + Biotin Tm (streptavidin; [6]): 80.71 ± 0.12 °C
- Streptavidin + Biotin Tm (streptavidin; [7]): 81.16 ± 0.07 °C
- shift up of streptavidin melting temperature with biotin (streptavidin; Conditions I-III): 1-2 °C
- shift in Tm for the dominant peak on addition of biotin (streptavidin; [8]): ~1 °C
- temperature shift of streptavidin thermogram with biotin (streptavidin; in E. coli lysate at decreased concentrations): 1.4 °C and 0.9 °C
- reduction in peak height of streptavidin thermogram with biotin binding (streptavidin; streptavidin (1 mg/mL) + 2 molar equivalents biotin in buffer (FIG. 5D)): 20%

Compound: C[C@H](CS)C(=O)N1CCC[C@H]1C(=O)O [Captopril]
- binding to / effect on ACE2 from difference thermogram [2]: relatively lesser effect on ACE2

Compound: NCCCC[C@H](N[C@@H](CCc1ccccc1)C(=O)O)C(=O)N1CCC[C@H]1C(=O)O [Lisinopril]
- binding to ACE2 compared with captopril (docking) (ACE2): stronger binder to ACE2
- inhibiting COVID-19 infection (COVID-19): ineffective

Compound: ACE2: unpurified angiotensin converting enzyme 2 expressed in HEK293 cells, Gln18-Ser740, RayBiotech
- difference thermogram peak temperature (peak assigned to C-domain) [3, 9]: 55.6 °C
- difference thermogram peak temperature (peak assigned to N-domain) [3, 9]: 70.6 °C

Compound: Streptavidin
- Streptavidin Tm [3, 4]: 79.03 ± 0.18 °C
- Streptavidin Tm [3, 5]: 77.39 ± 0.05 °C
- Streptavidin Tm [3, 6]: 79.82 ± 0.10 °C
- Streptavidin Tm [3, 7]: 79.70 ± 0.02 °C
- melting temperature of streptavidin without biotin ([3]; Conditions I-III): around 80 °C
- streptavidin peak temperature [3, 8]: ~79 °C

Compound: lysozyme: lysozyme, recombinant, expressed in rice
- Tm [1]: 64.77±0.16 °C
